Experimental data from patent US5855906A, “Intravaginal drug delivery devices for the administration of 17β-oestradiol precursors” (priority 1994, dated 1999).
Values after ≈ are worked out from the molar mass of the structure shown.

Assays:
[1] = Nominal in vitro daily release from intravaginal rings under sink conditions (1% w/v benzalkonium chloride, 37 °C); type: physicochemical; conditions: calculated as anhydrous 17β-oestradiol
Experimental: The nominal in vitro release rates set out in Table 1 for the rings of Examples 1-5 were determined under sink conditions of 1% (w/v) benzalkonium chloride. These release rates were determined in the following manner.
Each ring (n=4) was suspended in the dissolution medium in an individual flask which is then capped, placed in a suitable oven at 37° C. and shaken. The dissolution medium was changed every 24 hours (±30 minutes). An aliquot of the used dissolution medium was analysed by high performance liquid chromatography (HPLC) using reverse phase packing and UV detection (at 235 nm for 17β-oestradiol-3-acetate and for
. The sensitivity of the original and improved analytical methods is 5 μg/100 ml.

[2] = Plasma 17β-oestradiol in post-menopausal women with 60 μg intravaginal ring, 14 days (Example 10); conditions: 60 μg ring, over 14 days
[3] = In vitro dissolution: mean daily release from full-length-core rings over up to 90 days in three media; type: physicochemical; conditions: for Mean Daily Release: 9 × 54 mm ring, core 141 × 2 mm, 37 °C, N = 4
Source text: In all cases the ring geometries comprise a ring of dimensions 9 mm (cross-sectional diameter)×54 mm (outer diameter) and containing a full length core (141 mm) of cross-sectional diameter 2 mm. […] The saline and benzalkonium chloride-containing media were chosen to ensure `sink conditions` in at least one medium for each intravaginal ring. It will be recognised by those skilled in the art that the term `sink conditions` refers to that set of experimental conditions in vitro which effectively simulates the active haemoperfusion that occurs in vivo, and which results in a maximum drug concentration gradient and maximum drug diffusion rate, at any given time, across the aqueous boundary layer. Thus, an in vitro dissolution experiment can be designed such that the solution solubility of the released drug in the dissolution medium is much greater than its bulk concentration in this medium at any given time, for example, by micellar drug solubilisation due to incorporation of a surfactant such as benzalkonium chloride (BKC), at a concentration above its critical micelle concentration. Thus, each ring was suspended by a thread in an individual closed flask containing the dissolution medium, maintained at a constant temperature of 37° C. The contents of the flask were gently agitated in order to prevent the occurrence of a hydrostatic layer on the surface of the ring. After 24 hours, the ring was removed and suspended in a flask of fresh dissolution medium of identical volume by a method identical to that previously described.

[4] = Stability during storage (observed in dissolution samples); conditions: dissolution medium samples
[5] = Silicone solubility at 37 °C in Dow Corning 360 medical fluid; type: physicochemical; conditions: organic solvent or mixture, Dow Corning 360 medical fluid, 37 °C, read-out: Silicone solubility
Experimental: Silicone solubility was determined at 37° C. in Dow Corning (Trade Mark) 360 medical fluid.

[6] = In vitro release from rings of varying core length and apparent/standard k value (Crank's equation); type: physicochemical; set-up: Standard k: unit not given here; conditions: for k: in µg/day/mm; for Mean Daily Release (as precursor): 250 ml 1% (w/v) BKC
Source text: Precursor release from a cylindrical device of core design, which comprises a polymer matrix in the form of a core incorporating 17β-oestradiol precursor and a sheath surrounding the core, can be described by Crank's equation: [formula] in which R=precursor release rate (μg/day)
Crank's equation relates the precursor release rate (R), in sink conditions, to the solubility (C2 S) and diffusibility (D) of the precursor in the polymer matrix, its partition characteristics (π) between the polymer matrix and the dissolution medium; and the ring dimensions (l, b, a). For any given precursor in any given polymer matrix, CS, D and π will be constant and can be grouped together to form the composite constant, k:
The k value can be empirically derived using Crank's equation in the following manner: [formula]
The k value is dependent on core length for certain of the 17β-oestradiol precursors (see Example 6 hereinafter). Accordingly, the k value at a core length of 35 mm has been denoted "standard k" value hereinafter.
Intravaginal drug delivery devices in the form of rings were prepared, each with a ring geometry as described in Table 3, by following the General Method of Manufacture set out hereinabove.
The dissolution medium was changed daily, following the protocol set out hereinabove. Mean daily release rates from the second week of dissolution experiments were used to determine the apparent k values presented in Table 3.
It was, therefore, decided to determine k values at a core length of 35 mm and such k values are hereinafter referred to as "standard k" values.
The standard k value was determined from the mean daily release rates observed in Example 6. The dissolution medium of 1.0% (w/v) of an aqueous solution of benzalkonium chloride was used in respect of the various 17β-oestradiol precursors, so as to ensure sink conditions.

[7] = in vitro; conditions: human, blood
[8] = Aqueous solubility in distilled water at 20 °C; conditions: water

## CC(=O)Oc1ccc2c(c1)CC[C@@H]1[C@@H]2CC[C@]2(C)[C@@H](O)CC[C@@H]12 [17β-oestradiol-3-acetate]
[1]; "60 μg" ring, core 2×12 mm
  nominal in vitro daily release rate: 57.5 to 62.5 µg
[1]; "120 μg" ring, core 2×24 mm
  nominal in vitro daily release rate: 115 to 125 µg
[1]; "240 μg" ring, core 2×47 mm
  nominal in vitro daily release rate: 230 to 250 µg
[2]
  mean increase in plasma 17β-oestradiol: 117.98 pmol/L
[3]; 0.133% (w/v) BKC
  Mean Daily Release: 700 μg per day
[3]; 0.9% (w/v) saline
  Mean Daily Release: 350 μg per day
[3]; 1.0% (w/v) BKC
  Mean Daily Release: 850 μg per day
[3]; BKC and saline media, ring geometry of Table 2
  release in vitro from intravaginal rings (in words): substantial release, in both BKC and in saline
[4]
  stability during storage: hydrolysis to 17β-oestradiol during storage
[5]
  solubility: 186 µg/mL (≈ 592 µM)
[6]; Table 3 rings, 1% (w/v) BKC
  apparent k value versus core length: varies with core length
[6]; Table 4, 1.0% (w/v) BKC, core length 35 mm, n = 5
  Mean Daily Release: 236.66 µg/day
[6]; Table 4, core length 35 mm, 1.0% (w/v) BKC
  Standard k: 10.017
[6]; Table 5, core length 35 mm
  k (standard k): 10.017 μg/day/mm
[6]; core length 6 mm, 1% (w/v) BKC
  k: 12.347
[6]; core length 6 mm, n = 5
  Mean Daily Release (as precursor): 49.25 µg/day
[6]; core length 12 mm, 1% (w/v) BKC
  k: 11.517
[6]; core length 12 mm, n = 5
  Mean Daily Release (as precursor): 91.88 µg/day
[6]; core length 25 mm, 1% (w/v) BKC
  k: 10.658
[6]; core length 25 mm, n = 5
  Mean Daily Release (as precursor): 177.15 µg/day
[6]; core length 35 mm, 1% (w/v) BKC
  k: 10.017
[6]; core length 35 mm, n = 5
  Mean Daily Release (as precursor): 236.66 µg/day
[7]
  half-life: < 1 min
[8]
  solubility: 3.8 µg/mL (≈ 12.1 µM)
